Data set [1] relates to human isolated bronchioles (small bronchi <1 mm diameter). Kind of data set: Relaxation of small human bronchi in precision cut lung slices contracted with carbachol (EC70). In kind it is cell-based. To be noted: for IC50: Homo sapiens, relaxation of bronchioles, CCh EC70, mean±SEM, n=3, read-out: pD2 (negative logarithm of IC50) (converted). As to the method:
Precision cut lung slices (PCLSs) from 6 patients were incubated in Krebs-Henseleit solution (37° C.) aerated with O2/CO2 (95:5%). The concentration response to RPL554 and glycopyrronium, administered alone and in combination at isoeffective concentrations, was assessed at sub-maximal contraction (70% maximum, EC70) induced by carbachol (CCh). […] Drug mixture effects were analyzed by Bliss Independence theory. Values (n=3) are mean±SEM.

For another data set, the system named is human isolated bronchi. Kind of data set: Duration of action on EFS (3, 10, 25 Hz)-contracted human isolated bronchi, RPL554 and glycopyrronium at EC30. In kind it is cell-based. The settings on record: administered alone. The method, then:
Bronchial rings from 6 patients were incubated in Krebs-Henseleit solution (37° C.) aerated with O2/CO2 (95/5%) under 0.5-1.0 g tension. The duration of action (30% maximal relaxation, EC30) of RPL554 and glycopyrronium, alone or in combination, was studied in tissue contracted with 3, 10 or 25 Hz electrical field stimulation (EFS). Bronchial tone was expressed as % of maximal response to papaverine (Emax) and the area under the curve (AUC) of the contractile response was assessed. Drug mixture effects were analyzed by Bliss Independence theory. Values (n=3) are mean±SEM.

Data set [2] deals with human isolated bronchial rings. The experiment in a line: Relaxation of human isolated bronchial rings pre-contracted with acetylcholine (EC70); synergy analysis (Bliss Independence, Berenbaum). In kind it is cell-based. From the text: In the laboratory, airways were dissected from connective and alveolar tissues. Then, segmental bronchi were isolated and stored overnight in KH buffer solution at refrigeration temperature. […] Bronchial rings were mounted on hooks in the organ baths where one hook was attached with threaded to a stationary rod and the other hook tied with thread to an isometric force displacement transducer. […] Then, concentration response curves were constructed to test individual compound RPL554 and muscarinic receptor antagonist alone; as well as RPL554 administered in combination with a muscarinic receptor antagonist in order to produce isobolar graphs as described elsewhere (Greco et al., 1995; Tallarida, 2001; Goldoni and Johansson, 2007; Boik et al., 2008; Lee, 2010). […] Goodman et al., 2008). E/Emax was expressed as percentage of Emax elicited by the contractile agents; […] The analysis of the potential synergism between RPL554 plus muscarinic receptor antagonist was measured by applying the Berenbaum method, the Bliss Independence (BI) criterion and the Loewe Additivity (LA) model through curved isoboles (Berenbaum, 1977; Greco et al., 1995; Grabovsky and Tallarida, 2004; Tallarida, 2006; Goldoni and Johansson, 2007; Tallarida and Raffa, 2010). […] Lee, 2010). The BI theory for two agents is expressed by the following equation: E(x,y)=Ex+Ey-(Ex*Ey), where E is the fractional effect, and x and y are the concentrations of two compounds in a combination experiment. If the combination effect is higher than the expected value from the above equation, the interaction is considered synergistic, while if this effect is lower, the interaction is antagonistic. […] In this study, the BI equation was characterized by X=RPL554 and Y=muscarinic receptor antagonist. […] The additive response (Eab) for each dose combination with respect to B was then calculated by insertion of B into EB=f(B). The difference between the observed relaxation response to the combination doses and the additive response was calculated and analysed using a one sample t-test and for multiple comparisons, the probability was adjusted for multiple comparisons using a Bonferroni correction. For illustrative purposes, the 1:1 dose combinations were analysed for synergy. […] Tallarida, 2001; Goldoni and Johansson, 2007; Boik et al., 2008; Lee, 2010).

Data set [3] concerns airways obstruction induced by bombesin in guinea pigs. Kind of data set: Reversal of bombesin-induced airways obstruction (total lung resistance). In kind it is in vivo. The method, then:
(§1) Guinea pigs were anaesthetised and ventilated. Airway obstruction was induced by the intravenous administration of bombesin (2 μg/ml; 5 ml/hr). Bronchodilation was induced by the iv. administration of RPL554 alone at various doses, or in combination with sub maximal doses of atropine (2 μg/kg). […] Total lung resistance (RL) and mean arterial blood pressure were measured. Data are expressed as % reduction in airways obstruction or blood pressure.

The subject of data set [4] is passively sensitized human isolated bronchi. The experiment in a line: Contraction induced by histamine in passively sensitized human bronchi pre-incubated with RPL554. Format: cell-based. The method, then: Human isolated bronchial rings were rotated overnight at room temperature in tubes containing KH buffer solution in the absence (non-sensitized control rings) or the presence of 10% vol^−1 sensitizing serum (sensitized rings) as described elsewhere (Watson et al., 1997; Rabe, 1998). Subjects suffering from atopic asthma (total IgE>250 U ml^−1 specific against common aeroallergens) during exacerbation provided signed consent for serum donation. Sera was prepared by centrifugation of whole blood and sera samples were frozen at −80° C. in […] until required.
The next morning, after removal of adhering alveolar and connective tissues, bronchial rings were transferred into an organ bath containing KH buffer (37° C.) and continuously gassed with a 95% O2/5% CO2. Tissues were pre-incubated for 30 min with RPL554 (1, 10 and 100 μM) and then followed (without washing) by the construction of concentration responses curve to histamine (10 nM-1 mM) in the presence of RPL554.
Appropriate curve-fitting to a sigmoidal model was used to calculate the effect (E), the Emax and the concentration required to cause a 50% maximal effect (EC50). The equation used was log [agonist] vs. response, Variable slope, expressed as Y=Bottom+(Top−Bottom)/{1+10^[(Log EC50−X)*HillSlope]} (Motulsky and Christopoulos, 2004; Goodman et al., 2008). E/Emax was expressed as percentage of Emax elicited by the contractile agents; EC50 values were converted to pD2 for statistical analysis (Goodman et al., 2008) and the relaxant responses were expressed as a percentage of papaverine (500 μM) induced relaxation.

A short description of data set [5]: Mean arterial blood pressure in bombesin-treated anaesthetised guinea pigs. The settings on record: RPL554 20 μg/kg iv (combination: + 2 μg/kg atropine). In kind it is in vivo. The method, then: as §1
Data set [6] deals with human isolated bronchial preparations. The experiment in a line: Inhibition of EFS (10 Hz)-induced contraction of human isolated bronchial rings. Format: cell-based. The method, then:
Regions of macroscopically normal lungs were taken from uninvolved areas resected from 24 subjects (11 male and 13 female, 60.1±1.6 years old) undergoing lobectomy surgery for lung cancer, but without a history of chronic airway disease.
Airways were immediately placed into oxygenated Krebs-Henseleit buffer solution (KH) (mM: NaCl 119.0, KCl 5.4, CaCl2 2.5, KH2PO4 1.2, MgSO4 1.2, NaHCO3 25.0, glucose 11.7; pH 7.4) containing the cyclooxygenase (COX) inhibitor indomethacin (5.0 μM), and transported at 4° C. from the “Regina Elena National Cancer Institute” or the “Sant' Andrea Hospital” to the Respiratory Research Laboratory in the Surgery and Medicine Faculty of “Tor Vergata University”, Rome, Italy. None of the subjects were chronically treated with theophylline, β2-agonists or glucocorticosteroids. Serum IgE levels determined on the day of surgery were in the normal range. Preoperative lung function parameters were generally normal and there were no signs of respiratory infections.
In the laboratory, airways were dissected from connective and alveolar tissues. Then, segmental bronchi were isolated and stored overnight in KH buffer solution at refrigeration temperature. […]
Human bronchi were placed in organ baths containing KH buffer solution (37° C.) medicated with indomethacin (5.0 μM), bubbled with 95% O2/5% CO2 and suspended under passive tension (0.5-1.0 g). […] Changes in isometric tension were measured with a transducer (Fort 10 WPI, Basile, Instruments, Italy) and the tissue responsiveness was assessed by acetylcholine (100 μM); when the response reached a plateau, rings were washed three times and allowed to equilibrate for 45 min. […]
Bronchial contractile tension induced by EFS was measured as a percentage of control bronchi, and polynomial curves were constructed by fitting models of biological data using nonlinear regression as described elsewhere (Motulsky and Christopoulos, 2004). […]

SMILES strings stand for the structures. Like-named read-outs stand apart in the source and are kept apart here. Marks after values point to notes of the source that are not given here.

Usually IC50 stands for the concentration that gives 50% inhibition. A word on the EC50: it is the concentration giving half of the maximal effect. The Emax is the greatest response seen or fitted, relative to the assay's reference.

`C[N+]1(C)CCC(OC(=O)C(O)(c2ccccc2)C2CCCC2)C1` (centres unmarked) [glycopyrronium, reference compound]: in data set [1], the “Effect on CCh-induced contraction” value is “abolished” and the IC50 was 0.000631 µM. In the data set on human isolated bronchi, the “Time for which the effect was detectable” value stood at 4 h and the “Time of maximal relaxation” value worked out at 50 ± 10 min.

On to `CN1[C@@H]2CC[C@H]1C[C@@H](OC(=O)C(CO)c1ccccc1)C2` (some centres unmarked) [atropine, reference compound], for which the EC50 in data set [2] (read-out: EC50 (geomean, 95% CI)) came out at 1.18 µM. In addition, the Emax in data set [2] (read-out: Emax (relaxation)) was found to be 66 ± 14%. Also, the “reduction in airways obstruction” value in data set [3] (atropine 2 μg/kg alone) was 22.3 ± 4.9%.

As to `COc1cc2c(cc1OC)-c1cc(=Nc3c(C)cc(C)cc3C)n(CCNC(N)=O)c(=O)n1CC2` [RPL554, 9,10-Dimethoxy-2-(2,4,6-trimethylphenylimino)-3-(N-carbamoyl-2-aminoethyl)-3,4,6,7-tetrahydro-2H-pyrimido[6,1-a]isoquinolin-4-one], the Emax in data set [2] (acetylcholine EC70 pre-contraction, percentage of papaverine (500 μM) relaxation, mean±SD, n=5, read-out: Emax (relaxation)) stood at 100%. For the same compound, the EC50 in data set [2] (relaxation of acetylcholine pre-contracted bronchi, n=5, read-out: EC50 (geomean, 95% CI)) was 21.2 µM. Besides, the maximal effect (Emax) at 1 µM in data set [4] (Homo sapiens, RPL554 1 uM, mean ± SEM, n=5) was found to be 70.3 ± 2.7%. Moreover, in data set [4] (Homo sapiens, RPL554 10 uM, mean ± SEM, n=5), the Emax at 10 µM is 58.1%. In addition, the results for the pD2 of histamine in data set [4] (RPL554 1 uM) and in data set [4] (RPL554 10 uM) were 4.97 ± 0.07*** and 4.98, respectively. Also, the “Effect on contraction induced by histamine” value in data set [4] (RPL554 100 μM) is given as “completely abolished”. Moreover, the “reduction in mean arterial blood pressure” value in data set [5] was 37.3+6.7%. The “Effect on CCh-induced contraction” value in data set [1] is reported as “abolished”. For the same compound, the IC50 in data set [1] was 1 µM. Besides, in the data set on human isolated bronchi, the “Time for which the effect was detectable” value turned out to be 4 h. In the data set with human isolated bronchi, the “Time of maximal relaxation” value came to 160 ± 20 min. The “% Reduction in airways obstruction” value in data set [3] (RPL554 10 μg/kg iv (combination: + atropine 2 μg/kg)) was 7.4 + 1.9%; in data set [3] (RPL554 20 μg/kg iv (combination: + atropine 2 μg/kg)), 24.6 + 4.3%; in data set [3] (RPL554 40 μg/kg iv (combination: + atropine 2 μg/kg)), 55.2 + 6.2%; in data set [3] (RPL554 80 μg/kg iv (combination: + atropine 2 μg/kg)), 65.1 + 5.3%. Moreover, the maximum response (Emax) at 100 µM in data set [6] (Homo sapiens, RPL554 100 μM, 10 Hz EFS, read-out: Emax, inhibition of contractile response induced by EFS) is 91.3 ± 3.37%. Also, the “T1/2 (offset, time to evoke half of maximal relaxation)” value in data set [6] (RPL554 100 μM, 10 Hz EFS) amounted to 23.7 ± 12.3 min. Besides, the “Duration of inhibition of EFS contractile response after exposure” value in data set [6] (after termination of drug exposure) was “at least 5 h”.

(Values after patent US10471063B2, “Drug combination of PDE3/PDE4 inhibitor and muscarinic receptor antagonist” (VERONA PHARMA PLC, priority 2013, dated 2019).)
